{
  "source": "patent US20230096028A1",
  "about": "“BICYCLIC HETEROCYCLYL COMPOUNDS AND USES THEREOF” (Revolution Medicines, Inc., priority 2019, published 2023)",
  "key": {"[1]": {"tested_on": "PC-9 cells (EGFR Ex19Del)", "experiment": "Potency Assay: pERK (SOS1 pERK IC50 Assay, AlphaLISA SureFire Ultra p-ERK1/2)", "type": "cell-based", "conditions": "Homo sapiens, read-out: SOS1 pERK IC50", "how_it_was_run": "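Cellular pERK1/2 by AlphaLISA SureFire Ultra after 1 h compound exposure (37° C., highest concentration 10 μM, 3-fold steps, duplicates) of EGFR Ex19Del PC-9 cells seeded the day before. A 4-parameter fit of signal versus log concentration gives IC50.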"}, "[2]": {"molecular_target": "T1, SOS1 catalytic domain (residues 564-1049) (Homo sapiens, UniProt Q07889)", "T1 sequence (Q07889 564-1049)": "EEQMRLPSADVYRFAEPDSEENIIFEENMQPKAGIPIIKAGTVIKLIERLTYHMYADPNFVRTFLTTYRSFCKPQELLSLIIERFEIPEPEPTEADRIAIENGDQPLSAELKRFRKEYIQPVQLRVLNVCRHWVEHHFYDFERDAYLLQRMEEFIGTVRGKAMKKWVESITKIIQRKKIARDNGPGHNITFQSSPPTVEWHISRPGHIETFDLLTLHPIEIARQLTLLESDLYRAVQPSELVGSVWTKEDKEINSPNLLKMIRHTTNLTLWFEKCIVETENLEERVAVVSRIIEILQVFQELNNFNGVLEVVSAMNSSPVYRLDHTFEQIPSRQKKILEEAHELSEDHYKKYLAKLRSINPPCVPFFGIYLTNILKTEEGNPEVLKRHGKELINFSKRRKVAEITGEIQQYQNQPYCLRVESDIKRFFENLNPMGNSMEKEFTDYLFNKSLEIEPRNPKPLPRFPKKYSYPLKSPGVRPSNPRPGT", "experiment": "Mode of Action Assay: inhibition of SOS1 nucleotide exchange activity (SOS1 TR-FRET IC50 Assay)"}, "[3]": {"molecular_target": "T1, SOS1 catalytic domain (residues 564-1049)", "experiment": "Potency Assay: binding affinity to SOS1 using Surface Plasmon Resonance (SPR)", "design": "SOS1 catalytic domain (residues 564-1049) immobilized on a sensor chip", "conditions": "immobilized SOS1 catalytic domain (residues 564-1049), read-out: SOS1 SPR Equilibrium Kd", "how_it_was_run": "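Kd was obtained by plotting binding response, taken just before association ended, versus compound concentration on a Biacore 8K. Compounds flowed at 50 μL/min over streptavidin-captured avi-SOS1 catalytic domain (~6000 RU), followed by buffer dissociation; HEPES 0.01 M/NaCl 0.15 M/0.05% P20 buffer, double-referenced.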"}, "[4]": {"conditions": "PC-9 cells (EGFR Ex19Del), 1 hour incubation, AlphaLISA p-ERK1/2"}},
  "note": "pIC50, pKd: −log10 of the molar value. Counter-ions that a name gives are not always drawn. Like-named read-outs stand apart in the source and are kept apart here.",
  "data": [
    {"smiles": "C[C@@H](Nc1nc(Cl)nc2c1CN(C(=O)C1(C#N)CCN(C)CC1)C2)c1cccc(C(F)F)c1F", "note": "[Example 299]", "values": [
      {"measurement": "pIC50", "setting": "[1]; [4]", "value": "> 6.00"},
      {"measurement": "pIC50", "setting": "[2]", "value": "> 6.00"},
      {"measurement": "pKd", "setting": "[3]", "value": "> 6.40"}
    ]},
    {"smiles": "C[C@@H](Nc1nc(Cl)nc2c1CN(C(=O)C1(F)CCOCC1)C2)c1cc(N)cc(C(F)(F)F)c1", "note": "[Example 256]", "values": [
      {"measurement": "pIC50", "setting": "[1]; [4]", "value": "> 6.00"},
      {"measurement": "pIC50", "setting": "[2]", "value": "> 6.00"},
      {"measurement": "pKd", "setting": "[3]", "value": "> 6.40"}
    ]},
    {"smiles": "C[C@@H]1CN(C(=O)N2Cc3nc(Cl)nc(N[C@H](C)c4cc(N)cc(C(F)(F)F)c4)c3C2)C[C@H](C)N1", "note": "[Example 146]", "values": [
      {"measurement": "pIC50", "setting": "[1]; [4]", "value": "> 6.00"},
      {"measurement": "pIC50", "setting": "[2]", "value": "> 6.00"},
      {"measurement": "pKd", "setting": "[3]", "value": "> 6.40"}
    ]},
    {"smiles": "COC1(C(=O)N2Cc3nc(Cl)nc(N[C@H](C)c4cccc(C(F)F)c4F)c3C2)CCN(C2COC2)CC1", "note": "[Example 325]", "values": [
      {"measurement": "pIC50", "setting": "[1]; [4]", "value": "> 6.00"},
      {"measurement": "pIC50", "setting": "[2]", "value": "> 6.00"},
      {"measurement": "pKd", "setting": "[3]", "value": "> 6.40"}
    ]},
    {"smiles": "C[C@@H](Nc1nc(Cl)nc2c1CN(C(=O)N1CCc3ccncc31)C2)c1cc(N)cc(C(F)(F)F)c1", "note": "[Example 142]", "values": [
      {"measurement": "pIC50", "setting": "[1]; [4]", "value": "> 6.00"},
      {"measurement": "pIC50", "setting": "[2]", "value": "> 6.00"},
      {"measurement": "pKd", "setting": "[3]", "value": "> 6.40"}
    ]},
    {"smiles": "C[C@@H](Nc1nc(Cl)nc2c1CN(C(=O)N1CCCNCC1)C2)c1cccc(C(F)(F)F)c1", "note": "[Example 377]", "values": [
      {"measurement": "pIC50", "setting": "[1]; [4]", "value": "> 6.00"},
      {"measurement": "pIC50", "setting": "[2]", "value": "> 6.00"},
      {"measurement": "pKd", "setting": "[3]", "value": "> 6.40"}
    ]},
    {"smiles": "C[C@@H](Nc1nc(Cl)nc2c1CN(C(=O)c1cc(N3CCOCC3)ccn1)C2)c1cc(N)cc(C(F)(F)F)c1", "note": "[Example 68]", "values": [
      {"measurement": "pIC50", "setting": "[1]; [4]", "value": "> 6.00"},
      {"measurement": "pIC50", "setting": "[2]", "value": "> 6.00"},
      {"measurement": "pKd", "setting": "[3]", "value": "> 6.40"}
    ]},
    {"smiles": "C[C@@H](Nc1nc(Cl)nc2c1CN(C(=O)N1CCNC(C(F)(F)F)C1)C2)c1cccc(C(F)(F)F)c1", "note": "(stereo partly drawn) [Example 363]", "values": [
      {"measurement": "pIC50", "setting": "[1]; [4]", "value": "> 6.00"},
      {"measurement": "pIC50", "setting": "[2]", "value": "> 6.00"},
      {"measurement": "pKd", "setting": "[3]", "value": "> 6.40"}
    ]},
    {"smiles": "C[C@@H](Nc1nc(CN2CCOCC2)nc2c1CN(C(=O)N1CCOCC1)C2)c1cccc(C(F)F)c1F", "note": "[Example 539]", "values": [
      {"measurement": "pIC50", "setting": "[1]; [4]", "value": "< 6.00"},
      {"measurement": "pIC50", "setting": "[2]", "value": "> 6.00"},
      {"measurement": "pKd", "setting": "[3]", "value": "< 6.40"}
    ]},
    {"smiles": "C[C@@H](Nc1nc(Cl)nc2c1CN(C(=O)N1CCOCC1)C2)c1cccc(C(F)(F)CO)c1", "note": "[Example 168, [2-chloro-4-[[(1R)-1-[3-(1,1-difluoro-2-hydroxy-ethyl)phenyl]ethyl]amino]-5,7-dihydropyrrolo[3,4-d]pyrimidin-6-yl]-morpholino-methanone]", "values": [
      {"measurement": "pIC50", "setting": "[1]; [4]", "value": "> 6.00"},
      {"measurement": "pIC50", "setting": "[2]", "value": "> 6.00"},
      {"measurement": "pKd", "setting": "[3]", "value": "> 6.40"}
    ]},
    {"smiles": "C[C@@H](Nc1nc(Cl)nc2c1CN(C(=O)N1C3COCC1COC3)C2)c1cccc(C(F)F)c1F", "note": "[Example 409]", "values": [
      {"measurement": "pIC50", "setting": "[1]; [4]", "value": "> 6.00"},
      {"measurement": "pIC50", "setting": "[2]", "value": "> 6.00"},
      {"measurement": "pKd", "setting": "[3]", "value": "> 6.40"}
    ]},
    {"smiles": "C[C@@H](Nc1nc(Cl)nc2c1CN(C(=O)C1CCN(C3COC3)CC1)C2)c1cccc(C(F)F)c1F", "note": "[Example 336]", "values": [
      {"measurement": "pIC50", "setting": "[1]; [4]", "value": "< 6.00"},
      {"measurement": "pIC50", "setting": "[2]", "value": "> 6.00"},
      {"measurement": "pKd", "setting": "[3]", "value": "> 6.40"}
    ]},
    {"smiles": "COc1nccnc1C(=O)N1CCc2nc(Cl)nc(N[C@H](C)c3cc(N)cc(C(F)(F)F)c3)c2C1", "note": "[Example 231]", "values": [
      {"measurement": "pIC50", "setting": "[1]; [4]", "value": "< 6.00"},
      {"measurement": "pIC50", "setting": "[2]", "value": "< 6.00"},
      {"measurement": "pKd", "setting": "[3]", "value": "< 6.40"}
    ]},
    {"smiles": "C[C@@H]1CN(C(=O)N2Cc3nc(Cl)nc(N[C@H](C)c4cccc(C(F)F)c4F)c3C2)C[C@H](C)N1C", "note": "[Example 397]", "values": [
      {"measurement": "pIC50", "setting": "[1]; [4]", "value": "> 6.00"},
      {"measurement": "pIC50", "setting": "[2]", "value": "> 6.00"},
      {"measurement": "pKd", "setting": "[3]", "value": "> 6.40"}
    ]},
    {"smiles": "Cc1c([C@@H](C)Nc2nc(Cl)nc3c2CN(C(=O)N2CCOCC2)C3)cccc1C(F)(F)F", "note": "[Example 477, 2-chloro-N-[(1R)-1-[2-methyl-3-(trifluoromethyl)phenyl]ethyl]-6-(morpholine-4-carbonyl)-5H,6H,7H-pyrrolo[3,4-d]pyrimidin-4-amine]", "values": [
      {"measurement": "pIC50", "setting": "[1]; [4]", "value": "> 6.00"},
      {"measurement": "pIC50", "setting": "[2]", "value": "> 6.00"},
      {"measurement": "pKd", "setting": "[3]", "value": "> 6.40"}
    ]},
    {"smiles": "C[C@@H](Nc1nc(Cl)nc2c1C[N+](=C(N(C)C)N(C)C)C2)c1cccc(C(F)F)c1F", "note": "[Example 529, 1-[2-chloro-4-[[(1R)-1-[3-(difluoromethyl)-2-fluoro-phenyl]ethyl]amino]-5,7-dihydropyrrolo[3,4-d]pyrimidin-6-ium-6-ylidene]-N,N,N′,N′-tetramethyl-methanediamine formate]", "values": [
      {"measurement": "pIC50", "setting": "[1]; PC-9, 1 h", "value": "< 6.00"},
      {"measurement": "pIC50", "setting": "[2]", "value": "> 6.00"},
      {"measurement": "pKd", "setting": "[3]", "value": "> 6.40"}
    ]},
    {"smiles": "C[C@@H](Nc1nc(Cl)nc2c1CN(C(=O)c1ccc(N3CCOCC3)cn1)C2)c1cc(N)cc(C(F)(F)F)c1", "note": "[Example 84]", "values": [
      {"measurement": "pIC50", "setting": "[1]; [4]", "value": "> 6.00"},
      {"measurement": "pIC50", "setting": "[2]", "value": "< 6.00"},
      {"measurement": "pKd", "setting": "[3]", "value": "> 6.40"}
    ]}
  ]
}
